{"source": "patent US20050071891A1", "about": "“Repressible sterility of animals” (priority 1999, published 2005)", "key": {"ZF4 cells": {"tested_on": "ZF4 cells", "assay": "Tet-off system in zebrafish cell culture, EGFP reporter", "assay_type": "cell-based", "settings": "doxycycline 0.2 μg/ml, 72 h, pTet-Off + pTRE-EGFP cells", "text": "The applicant first tested the functionality of the Tet-off system in zebrafish cell cultures. The cell culture was established using ZF4 cells as previously described (Driever and Rangini, 1993). Cells were transfected with the DNAs using Effectene liposomes (Qiagen) according to the manufacturer's instructions. Cells were initially transfected with pTet-Off and placed under neomycin selection for 1 month. Neomycin-resistant cells were then transfected with pTRE-EGFP, and the selection plasmid pTK-Hyg, and placed under hygromycin selection for two weeks. EGFP expression was determined by examining and counting cells with obvious fluorescence and by examination of cell lysates using a fluorometer. Cells were grown in medium with or without doxycycline (0.2 μg/ml) for 72 h prior to assessment of gene expression, or were rinsed of doxycycline and assessed for reporter gene expression 72 h after removal of doxycycline."}, "P19-pSFM 7 cells [1]": {"tested_on": "P19-pSFM 7 cells", "assay": "Luciferase activity of pSFM 25 in P19 clones stably integrated with pSFM 7", "assay_type": "cell-based, mouse", "settings": "doxycycline at 1 μg/ml, clone 46", "protocol": "Stably integrated P19 clones were obtained by using BioRad Gene Pulser II electroporation system. 30 μg DNA electroporated into 10 million cells under following conditions 960 μF and 0.16 kV in a 0.4 cm cuvette (0.4 kV/cm). The next day normal media were replaced with appropriate selection media (300 μg/ml G418).\nSelection of a P19 cell line stably integrated with a goosecoid-dependent TET-OFF transactivator P19 cells were electroporated with pSFM 7 (Goosecoid promoter-TET/OFF) linearised with ApaLI and selected for stable integration.\nTable 20 showes the luciferase activities of pSFM 25 (TRE luciferase+) shown in counts per second (cps) of transiently transfected in P19-pSFM 7 cells.\nAddition of doxycycline at 1 μg/ml reduced luciferase activity from pSFM 25 in this clone by 90 fold. This clone, containing stably integrated pSFM 7 was therefore designated P19-pSFM 7 and used for further testing."}, "P19-pSFM 7 cells [2]": {"tested_on": "P19-pSFM 7 cells", "assay": "Expression patterns of reporter constructs in P19-pSFM 7 cells", "assay_type": "cell-based, mouse", "settings": "transfected into P19-pSFM 7 cells", "protocol": "Fluorescent and transmitted light images were acquired using a CCD camera with a microscope. […] The luminescence assays were conducted by using a dark 96 well plate was done by Victor2 from Wallac or by Topcount NXT from Can berra Packard.\nThe first stage for testing blocker constructs is to set up an appropriate cell system to detect expression of reporter constructs. Initially, either pdsRED-N1 (CMV promoter RFP), pSFM 6 (CMV promoter goosecoid cDNA fused to RFP) or pSFM 24 (TRE EGFP) were transfected into P19-pSFM 7 cells to test the expression patterns of the EGFP, RFP and goosecoid-fused to RFP proteins (FIG. 37). […] In these cases, RFP expression fused to goosecid in the nucleus is expected to be inhibited in the presence of an appropriate blocker."}, "zBMP2": {"tested_on": "zBMP2", "assay": "Injection of zBMP2 antisense and double stranded DNA constructs into zebrafish embryos", "assay_type": "in vivo", "settings": "100 μg/ml, 1-4 cell stage embryos", "protocol": "All the DNA preparations were appropriately linearized and gel purified (Qiaquick Gel Extraction Kit) before injection. Needles were made from borosilicate glass capillaries with filaments (GC100TF-15, Clark Electromedical instruments) using a P-80PC micropipette puller (Sutter Instrument Co.). The needle was back-filled with purified DNA diluted to 100 ng/μl in 1× injection buffer (10×; 50 mM Tris; 5 mM EDTA; 1M KCl, pH7.2) using a hand pulled pipette. Injections were carried out on a dissection microscope fitted with two, 3-dimensional Narshige MN-151 micromanipulators. Embryos were held in place during injection by a hydraulically (mineral oil) driven holding pipette. Injection of DNA solution was facilitated pneumatically using a 3-way foot operated plunge valve (Festo Engineering), connected between the injection needle holder and nitrogen tank. Injection was performed on one-cell stage embryos, unless specifically indicated otherwise. Injected embryos were incubated and reared as described above.\nOn confirming the ability of in vitro transcribed BMP2 antisense and double stranded transcripts to disrupt larval development, DNA constructs capable of expressing the antisense and double stranded transcripts in vivo were developed and tested. […]"}}, "note": "Several values for one entry are separate records, joined by “and”; a condition that tells them apart may be missing. Equal values may be shown once."}
{"molecule": "C[C@H]1c2cccc(O)c2C(=O)C2=C(O)[C@]3(O)C(=O)C(C(N)=O)=C(O)[C@@H](N(C)C)[C@@H]3[C@@H](O)[C@@H]21", "note": "[doxycycline, reference compound]", "values": [{"measurement": "EGFP gene expression relative to cells not exposed to doxycycline", "setting": "ZF4 cells", "value": "approximately 3%"}, {"measurement": "reduction of luciferase activity from pSFM 25", "setting": "P19-pSFM 7 cells [1]", "value": 90, "unit": "fold"}]}
{"molecule": "pSFM 6: goosecoid cDNA fused to red fluorescent protein in pDSRed1-N1", "values": [{"measurement": "cellular location of reporter expression", "setting": "P19-pSFM 7 cells [2]", "value": "detected in the nucleus"}]}
{"molecule": "pzBMP2-ds: zBMP2 promoter drives about 800 bp of zBMP2 cDNA designed to fold back as dsRNA (SEQ ID NO:13) (nucleic acid, Blocker Molecule) DNA: GAATTCATGAGGAACTTAGGAGACGACGGGAACGCAGACCGGCCACAGCGCTTCCTCCTCCGGAACTGACTGATCATGGTCGCCGTGGTCCGCGCTCTCACGGTGCTGTTGCTCGGTCAGGTGTTGCTGGGAGGTGCCGTTGGACTCATTCCCGAGATCGACCGACGGAAATACAGTGATTCGGGGAGACACACACCGGAGCGAACTGATACAAACTTCCTGAACGAGTTTGAGCTACGCTTGCTCAATATGTTCGGATTGAAGCGAAAACCCACCCCAAGCAAATCGGCAGTGGTCCCTCAGTACATGCTGGACTTGTATTATATGCACTCTGAAAACGATGACCCGAACATTCGGCGCCCGAGGAGCACTATGGGAAAACATGTAGAAAGGGCAGCCAGCAGAGCAAACACGATACGAAGTTTTCATCACGAAGAGGCTTTCGAGGCACTGTCCAGCCTGAAAGGAAAAACAACGCAGCAGTTTTTCTTCAACCTTACCTCCATTCCTGTCGACTGCCGATTTGCTTGGGGTGGGTTTTCGCTTCAATCCGAACATATTGAGCAAGCGTAGCTCAAACTCGTTCAGGAAGTTTGTATCAGTTCGCTCCGGTGTGTGTCTCCCCGAATCACTGTATTTCCGTCGGTCGATCTCGGGAATGAGTCCAACGGCACCTCCCAGCAACACCTGACCGAGCAACAGCACCGTGAGAGCGCGGACCACGGCGACCATGATCAGTCAGTTCCGGAGGAGGAAGCGCTGTGGCCGGTCTGCGTTCCCGTCGTCTCCTAAGTTCCTCATCTGCAGCAATTGGATATCAAGCTTATCGATGATGATCCAGACATGATAAGATACATTGATGAGTTTGGACAAACCNCANCTAGAATGCAGTGAAAAAAATGCTTTATTTGTGAAATTTGTGATGCTATTGCTTTATTTGTAACCATTATAAGCTGCAATAAACAAGTTAACNACAACAATTGCATTCATTTTATGTTTCAGGTTCAGNGGGAGGTGTGGGAGGTTTTTTAAAGCAAGTAAAACCTCTNCAAATGTGGTATGGCTGATTATGATCCTCTAGATCAGATCCACTAGTTCTAGAGCGGCCGCCACCGCGGTGGAGCTC", "values": [{"measurement": "Number Deformed", "setting": "zBMP2", "value": "21 and 22"}, {"measurement": "mortality, percentage", "setting": "zBMP2", "value": "14.3% and 16.5%"}]}
